From patent publication US20230365553A1, “COMPOUNDS AND COMPOSITIONS FOR TREATING CONDITIONS ASSOCIATED WITH STING ACTIVITY” (IFM Due, Inc., priority 2020, published 2023)
pEC50: −log10 of the molar value.

Target: T1, STING (Homo sapiens, UniProt Q86WV6, G230A/H232R/R293Q/R71H)
T1 construct: host or cells: THP1-Dual KO-IFNAR2 cells
Test: STING reporter assay: luciferase reporter activity in THP1-Dual KO-IFNAR2 cells stimulated with 2′3′cGAMP
Assay type: cell-based
Details: 15 μM 2′3′cGAMP, 24h, read-out: hSTING EC50
Experimental: STING pathway activation by the compounds described herein was measured using THP 1-Dual™ cells (KO-IFNAR2).
THP1-Dual™ KO-IFNAR2 Cells (obtained from invivogen) were maintained in RPMI, 10% FCS, 5 ml P/S, 2 mM L-glut, 10 mM Hepes, and 1 mM sodium pyruvate. Compounds were spotted in empty 384 well tissue culture plates (Greiner 781182) by Echo for a final concentration of 0.0017-100 μM. Cells were plated into the TC plates at 40 μL per well, 2×10E6 cells/mL. For activation with STING ligand, 2′3′cGAMP (MW 718.38, obtained from Invivogen), was prepared in Optimem media.
The following solutions were prepared for each 1×384 plate: • Solution A: 2 mL Optimem with one of the following stimuli: • 60 μL of 10 mM 2′3′cGAMP→150 μM stock • Solution B: 2 mL Optimem with 60 μL Lipofectamine 2000→Incubate 5 min at RT
2 mL of solution A and 2 ml Solution B was mixed and incubated for 20 min at room temperature (RT). 20 μL of transfection solution (A+B) was added on top of the plated cells, with a final 2′3′cGAMP concentration of 15 μM. The plates were then centrifuged immediately at 340 g for 1 minute, after which they were incubated at 37° C., 5% CO2, >98% humidity for 24h. Luciferase reporter activity was then measured. EC50 values were calculated by using standard methods known in the art.
Luciferase reporter assay: 10 μL of supernatant from the assay was transferred to white 384-plate with flat bottom and squared wells. One pouch of QUANTI-Luc™ Plus was dissolved in 25 mL of water. 100 μL of QLC Stabilizer per 25 mL of QUANTI-Luc™ Plus solution was added. 50 μL of QUANTI-Luc™ Plus/QLC solution per well was then added. Luminescence was measured on a Platereader (e.g., Spectramax I3X (Molecular Devices GF3637001)).
Luciferase reporter activity was then measured. EC50 values were calculated by using standard methods known in the art.

T1 sequence (Q86WV6 whole entry R71H/G230A/H232R/R293Q): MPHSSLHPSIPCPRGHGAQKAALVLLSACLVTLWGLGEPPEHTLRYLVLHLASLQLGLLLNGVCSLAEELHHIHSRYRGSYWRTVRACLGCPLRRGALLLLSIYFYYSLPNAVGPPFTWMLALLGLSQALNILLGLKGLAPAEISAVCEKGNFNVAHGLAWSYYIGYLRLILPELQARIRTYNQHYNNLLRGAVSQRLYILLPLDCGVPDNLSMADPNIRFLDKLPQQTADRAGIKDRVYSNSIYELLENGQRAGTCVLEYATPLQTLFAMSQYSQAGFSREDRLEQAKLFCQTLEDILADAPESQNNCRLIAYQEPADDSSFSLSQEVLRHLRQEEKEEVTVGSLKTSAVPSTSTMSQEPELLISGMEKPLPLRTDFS

Row | Structure (SMILES) | pEC50
1 | CCC(=O)Nc1c[nH]c2cc(F)c(-c3cnn(-c4ccc(CC)cc4)c3)cc12 [Compound 103, N-(5-(1-(4-ethylphenyl)-1H-pyrazol-4-yl)-6-fluoro-1H-indol-3-yl)propionamide] | 6.00 to 6.70
2 | CCC(=O)Nc1c[nH]c2ccc(-c3cnn(-c4ccc(C(F)(F)F)cn4)c3)cc12 [Compound 105, N-(5-(1-(5-(trifluoromethyl)pyridin-2-yl)-1H-pyrazol-4-yl)-1H-indol-3-yl)propionamide] | 6.00 to 6.70
3 | CCc1ccc(-n2cc(-c3ccc4[nH]cc(NC(=O)C5CCN(C(=O)OC(C)(C)C)C5)c4c3)cn2)cc1 (stereo not shown) [Compound 108, tert-butyl 3-((5-(1-(4-ethylphenyl)-1H-pyrazol-4-yl)-1H-indol-3-yl)carbamoyl)pyrrolidine-1-carboxylate] | 6.00 to 6.70
4 | CCC(=O)Nc1c[nH]c2ccc(-c3cnn(-c4ccc(C(F)(F)F)c(C)c4)c3)cc12 [Compound 109, N-(5-(1-(3-methyl-4-(trifluoromethyl)phenyl)-1H-pyrazol-4-yl)-1H-indol-3-yl)propionamide] | 6.00 to 6.70
5 | CCC(=O)Nc1c[nH]c2ccc(-c3cnn(-c4ccc(OCC(F)(F)F)cc4)c3)cc12 [Compound 110, N-(5-(1-(4-(2,2,2-trifluoroethoxy)phenyl)-1H-pyrazol-4-yl)-1H-indol-3-yl)propionamide] | 6.70 to 7.40
6 | O=C(Nc1c[nH]c2ccc(-c3cnn(-c4ccc(C(F)(F)F)cc4)c3)cc12)C1CCC1 [Compound 111, N-(5-(1-(4-(trifluoromethyl)phenyl)-1H-pyrazol-4-yl)-1H-indol-3-yl)cyclobutanecarboxamide] | 6.00 to 6.70
7 | CCc1ccc(-n2cc(-c3ccc4[nH]cc(NC(=O)C(C)NC(=O)OC(C)(C)C)c4c3)cn2)cc1 (stereo not shown) [Compound 114, tert-butyl (1-((5-(1-(4-ethylphenyl)-1H-pyrazol-4-yl)-1H-indol-3-yl)amino)-1-oxopropan-2-yl)carbamate] | 6.00 to 6.70
8 | CCC(=O)Nc1c[nH]c2ccc(-c3ccnn3-c3ccc(C(F)(F)F)cc3)cc12 [Compound 116, N-(5-(1-(4-(trifluoromethyl)phenyl)-1H-pyrazol-5-yl)-1H-indol-3-yl)propionamide] | 4.00 to 5.30

Other lines, results leading:

Row | pEC50 | Structure (SMILES)
9 | 6.00 to 6.70 | CCC(=O)Nc1c[nH]c2ccc(-c3cnn(-c4ccc(C#N)cc4)c3)cc12 [Compound 101, N-(5-(1-(4-cyanophenyl)-1H-pyrazol-4-yl)-1H-indol-3-yl)propionamide]
10 | 6.00 to 6.70 | CCC(=O)Nc1c[nH]c2ccc(-c3cnn(-c4ccc(CC(F)(F)F)cc4)c3)cc12 [Compound 102, N-(5-(1-(4-(2,2,2-trifluoroethyl)phenyl)-1H-pyrazol-4-yl)-1H-indol-3-yl)propionamide]
11 | 6.00 to 6.70 | CCC(=O)Nc1c[nH]c2ccc(-c3cnn(-c4ccc(COC)cc4)c3)cc12 [Compound 104, N-(5-(1-(4-(methoxymethyl)phenyl)-1H-pyrazol-4-yl)-1H-indol-3-yl)propionamide]
12 | 6.70 to 7.40 | CCc1ccc(-n2cc(-c3ccc4[nH]cc(NC(=O)COC)c4c3)cn2)cc1 [Compound 106, N-(5-(1-(4-ethylphenyl)-1H-pyrazol-4-yl)-1H-indol-3-yl)-2-methoxyacetamide]
13 | 6.00 to 6.70 | CCc1ccc(-n2cc(-c3ccc4[nH]cc(NC(=O)CCC#N)c4c3)cn2)cc1 [Compound 107, 3-cyano-N-(5-(1-(4-ethylphenyl)-1H-pyrazol-4-yl)-1H-indol-3-yl)propanamide]
14 | 6.00 to 6.70 | CCc1ccc(-n2cc(-c3ccc4[nH]cc(NC(=O)C5COC5)c4c3)cn2)cc1 [Compound 112, N-(5-(1-(4-ethylphenyl)-1H-pyrazol-4-yl)-1H-indol-3-yl)oxetane-3-carboxamide]
15 | 6.70 to 7.40 | CCc1ccc(-n2cc(-c3ccc4[nH]cc(NC(=O)CC(C)(C)O)c4c3)cn2)cc1 [Compound 113, N-(5-(1-(4-ethylphenyl)-1H-pyrazol-4-yl)-1H-indol-3-yl)-3-hydroxy-3-methylbutanamide]
16 | 6.70 to 7.40 | CCc1ccc(-n2cc(-c3ccc4[nH]cc(NC(=O)C5CCCC5)c4c3)cn2)cc1 [Compound 115, N-(5-(1-(4-ethylphenyl)-1H-pyrazol-4-yl)-1H-indol-3-yl)cyclopentanecarboxamide]
